Consider one compound from US20070142427A1, “Noncyclic 1,3-Dicarbonyl compounds as dual PPAR agonists with potent antihyperglycemic and antihyperlipidemic activity” (Shenzhen Chipscreen Biosciences Ltd., priority 2002, published 2007).

Test [1] concerns db/db mice. Nature of the test: Blood glucose lowering in db/db mice in vivo. As to conditions: male db/db mice, once daily gavage for 9 days; measured at day 9 after 3 hours fasting after dosing, tail blood, Bayer Strips (FIG. 3). On the procedure: 7 week-old male db/db (C57BLKS/J-m+/+Lepr^db) mice (n=10) from Jackson Laboratories (Bar Harbor, Me.) were treated once daily with indicated doses of the compound by gavage feeding at each morning for 9 consecutive days. All animals were maintained under standardized conditions (12-hour light/dark cycle, 22° C.). At day 9 of the treatment, blood glucose level was measured after 3 hours fasting after dosing by taking tail blood using Bayer Strips.

Test [2] has as its system db/db mice. The experiment in a line: Blood triglyceride lowering in db/db mice in vivo. As to conditions: male db/db mice, once daily gavage for 9 days; measured at day 9 after 3 hours fasting after dosing, tail blood, Roche Strips (FIG. 4). How it is done:
7 week-old male db/db (C57BLKS/J-m+/+Lepr^db) mice (n=10) from Jackson Laboratories (Bar Harbor, Me.) were treated once daily with indicated doses of the compound by gavage feeding at each morning for 9 consecutive days. All animals were maintained under standardized conditions (12-hour light/dark cycle, 22° C.). At day 9 of the treatment, blood triglyceride level was measured after 3 hours fasting after dosing by taking tail blood using Roche Strips.

Consider `COC(=O)C(Cc1ccc(OCCOc2ccc3c(c2)CCCC3)cc1)C(=O)OC` [CS-01300012, dimethyl 4-[2-(5,6,7,8-tetrahydro-2-naphthoxy)ethoxy] benzylmalonate], for which, in the test on db/db mice [1], the blood glucose level result is given as “effective in lowering blood glucose level”. Further, in the test on db/db mice [2], the blood triglyceride level entry is on record as “effective in lowering blood triglyceride level”.
